Experimental data as given in patent US5043332A, “Novel 11β-substituted -19-nor-steriods” (priority 1981, dated 1991).

Assays:
[1] = target: T1, Progestogen receptor of the uterus of rabbits (Oryctolagus cuniculus, UniProt P06186); assay: Progestogen receptor binding (displacement of tritiated product R); set-up: species or system rabbit; conditions: for affinity for progestogen receptors (in words): conclusion
T1 construct: The uterus was removed, weighed and homogenized at 0° C; from tissue; host or cells: rabbit uterus, 105,000 g supernatant (estradiol-primed immature rabbits)
T1 sequence (P06186 1-930): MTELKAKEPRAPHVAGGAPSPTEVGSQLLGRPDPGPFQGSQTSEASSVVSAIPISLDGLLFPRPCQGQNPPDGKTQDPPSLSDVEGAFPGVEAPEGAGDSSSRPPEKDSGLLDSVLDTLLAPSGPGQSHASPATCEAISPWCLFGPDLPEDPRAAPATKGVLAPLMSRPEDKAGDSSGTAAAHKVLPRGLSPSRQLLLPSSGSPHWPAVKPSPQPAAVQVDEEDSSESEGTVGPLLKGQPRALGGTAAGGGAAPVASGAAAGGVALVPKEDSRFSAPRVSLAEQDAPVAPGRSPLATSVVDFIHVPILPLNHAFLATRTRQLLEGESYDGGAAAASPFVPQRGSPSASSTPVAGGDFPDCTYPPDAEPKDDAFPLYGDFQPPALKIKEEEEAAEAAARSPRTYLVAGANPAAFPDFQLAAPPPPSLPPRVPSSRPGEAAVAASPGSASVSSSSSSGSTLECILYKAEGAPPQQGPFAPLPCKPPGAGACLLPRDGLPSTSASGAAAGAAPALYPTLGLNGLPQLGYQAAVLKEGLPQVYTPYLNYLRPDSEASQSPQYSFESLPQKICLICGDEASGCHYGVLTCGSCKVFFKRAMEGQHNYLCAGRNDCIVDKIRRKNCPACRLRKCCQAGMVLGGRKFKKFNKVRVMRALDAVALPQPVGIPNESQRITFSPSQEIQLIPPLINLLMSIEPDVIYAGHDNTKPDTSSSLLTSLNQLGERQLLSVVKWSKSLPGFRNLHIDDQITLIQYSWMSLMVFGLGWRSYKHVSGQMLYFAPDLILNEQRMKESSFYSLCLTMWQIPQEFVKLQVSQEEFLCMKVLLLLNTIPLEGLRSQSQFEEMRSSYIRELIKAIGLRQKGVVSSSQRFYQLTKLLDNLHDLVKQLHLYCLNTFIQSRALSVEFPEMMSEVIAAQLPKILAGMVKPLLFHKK
Procedure: C. Progestogen receptor of the uterus of rabbits
Immature rabbits weighing about 1 kg received a cutaneous application of 25 μg of estradiol and the animals were killed 5 days later. The uterus was removed, weighed and homogenized at 0° C. with a polytetrafluoroethylene-glass Potter, in a buffered TS solution [Tris 10. mM, 0.25M of saccharose, HCl-pH of 7.4] with 1 g of tissue per 50 ml of TS. […] The concentration of tied tritiated R (B) was then measured for each incubate by the technique of adsoprtion on carbon-dextran.
(§1) The calculation of the relative affinity of […] (ARL) was identical for all of the above receptor tests. One traced the following two curves: the percentage of tied tritiated hormone B/T as a function of the logarithm of the cold hormone concentration and B/T as a function of the logarithm of the concentration of the cold test product. One determined the line of the equation. [formula]
(§2) The intersection of the I50 line and the curves permits one to determine the concentrations of the cold hormone of the reference (CH) and the cold test compound (CX) which inhibit by 50% the tieing of tritiated hormone with the receptor. The relative affinity of tieing (ARL) of the test product was determined by the equation: [formula]

[2] = target: T2, Estrogen receptor of uterus of mice (Mus musculus, UniProt P19785); assay: Estrogen receptor binding (displacement of tritiated estradiol)
T2 construct: the uterus were removed and homogenized at 0° C; from tissue; host or cells: mouse uterus, 105,000 g supernatant (immature females 18 to 21 days old)
T2 sequence (P19785 1-599): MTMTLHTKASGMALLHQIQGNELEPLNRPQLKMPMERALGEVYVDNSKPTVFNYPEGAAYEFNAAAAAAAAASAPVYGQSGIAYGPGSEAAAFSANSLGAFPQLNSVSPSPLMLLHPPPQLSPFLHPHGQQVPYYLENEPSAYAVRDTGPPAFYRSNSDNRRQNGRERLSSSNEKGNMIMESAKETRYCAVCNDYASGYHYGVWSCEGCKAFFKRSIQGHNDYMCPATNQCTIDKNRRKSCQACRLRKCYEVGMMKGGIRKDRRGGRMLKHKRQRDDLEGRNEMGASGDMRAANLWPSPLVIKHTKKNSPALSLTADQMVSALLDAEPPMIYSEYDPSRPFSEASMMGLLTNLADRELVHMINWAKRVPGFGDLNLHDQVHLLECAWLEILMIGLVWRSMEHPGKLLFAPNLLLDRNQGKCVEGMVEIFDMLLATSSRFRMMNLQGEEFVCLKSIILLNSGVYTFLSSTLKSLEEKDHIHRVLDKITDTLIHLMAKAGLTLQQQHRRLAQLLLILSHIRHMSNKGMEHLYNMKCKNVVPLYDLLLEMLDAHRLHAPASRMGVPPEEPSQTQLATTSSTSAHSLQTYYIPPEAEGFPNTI
Procedure: E. Estrogen receptor of uterus of mice
Immature female mice 18 to 21 days old were killed and the uterus were removed and homogenized at 0° C. with a polytetrafluoroethylene-glass Potter in a buffered TS solution consisting of 10 mM, Tris, 0125M Saccharose, HCl for a pH of 7.4 at a rate of 1 g of tissue per 25 ml of TS. The homogenate was then ultracentrigued at 105,000 g for 90 minutes at 0° C. and aliquoits of the resulting […] were incubated at 0° C. for a time (t) with a constant concentration (T) of tritiated estradiol in the presence of increasing concentrations (0 to 1000×10^-9 M) of either cold estradiol or cold test compound. The concentration of tied tritiated estradiol (B) was measured for each incubate by the technique of adsorption on carbon-dextran.
as §1, §2

[3] = second table, incubation 2 H at 0° C.
[4] = second table, incubation 24 H at 0° C.

| Structure (SMILES) | relative affinity of tieing (ARL), Progestogen ([1]; incubation 2 H at 0° C.) | relative affinity of tieing (ARL), Progestogen ([1]; incubation 24 H at 0° C.) | relative affinity of tieing (ARL), Estrogen ([2]; incubation 2 H at 0° C.) | relative affinity of tieing (ARL), Estrogen ([2]; incubation 5 H (25° C.)) | relative affinity of tieing (ARL), Progestogen [1, 3] | relative affinity of tieing (ARL), Progestogen [1, 4] | relative affinity of tieing (ARL), Estrogen [2, 3] | affinity for progestogen receptors (in words) [1] |
| --- | --- | --- | --- | --- | --- | --- | --- | --- |
| C[C@]12C[C@H](c3ccc([N+](C)(C)[O-])cc3)C3=C4CCC(=O)C=C4CC[C@H]3[C@@H]1CC[C@@]2(O)C#CCl [Example 26, N-oxide of 11β-[4-(N,N-dimethylamino)-phenyl]-21-chloro-19-nor-17α-Δ^4,9-pregnadiene-20-yne-17β-ol-3-one] | – | – | – | – | 6,3 | 8,3 | 0 | – |
| CC#C[C@]1(O)CC[C@H]2[C@@H]3CCC4=CC(=O)C(C)(C)CC4=C3[C@@H](c3ccc(N(C)C)cc3)C[C@@]21C [Example 1, 2,2-dimethyl-11β-(4-dimethylaminophenyl)-17α-(prop-1-ynyl)-Δ^4,9-estradiene-17β-ol-3-one] | 4 | 4 | < 0,1 | < 0,1 | – | – | – | – |
| CN(C)c1ccc([C@H]2C[C@@]3(C)[C@@H](CC[C@@]3(O)C#C[Si](C)(C)C)[C@@H]3CCC4=CC(=O)CCC4=C32)cc1 [Example 44, 11β-[4-(N,N-dimethylamino)-phenyl]-21-trimethylsilyl-19-nor-17α-Δ^4,9-pregnadiene-20-yne-17β-ol-3-one] | – | – | – | – | 15,2 | 38 | 0 | – |
| C=C(C)C#C[C@]1(O)CC[C@H]2[C@@H]3CCC4=CC(=O)CCC4=C3[C@@H](c3ccc(N(C)C)cc3)C[C@@]21C [Example 23, 11β-[4-(N,N-dimethylamino)-phenyl]-23-methyl-19,21-dinor-17α-Δ^4,9,23-cholatriene-20-yn-17β-ol-3-one] | – | – | – | – | 81 | 268 | 0 | – |
| CC#C[C@]1(O)CC[C@H]2[C@@H]3CCC4=CC(=O)[C@H](C)CC4=C3[C@@H](c3ccc(N(C)C)cc3)C[C@@]21C [Example 5, 2α-methyl-11β-(4-dimethylaminophenyl)-17α-(prop-1-ynyl)-Δ^4,9-estradiene-17β-ol-3-one] | – | – | – | – | – | – | – | very remarkable affinity |
| CC#C[C@]1(O)CC[C@H]2[C@@H]3CCC4=CC(=O)CCC4=C3[C@@H](c3ccc(N(C)C)cc3)C[C@@]21C [Example 19, 11β-[4-(N,N-dimethylamino)-phenyl]-17α-(prop-1-ynyl)-Δ^4,9-estradiene-17β-ol-3-one] | – | – | – | – | – | – | – | very remarkable affinity |

Next, values leading:

| relative affinity of tieing (ARL), Progestogen ([1]; incubation 2 H at 0° C.) | relative affinity of tieing (ARL), Progestogen ([1]; incubation 24 H at 0° C.) | relative affinity of tieing (ARL), Estrogen ([2]; incubation 2 H at 0° C.) | relative affinity of tieing (ARL), Estrogen ([2]; incubation 5 H (25° C.)) | relative affinity of tieing (ARL), Progestogen [1, 3] | relative affinity of tieing (ARL), Progestogen [1, 4] | relative affinity of tieing (ARL), Estrogen [2, 3] | affinity for progestogen receptors (in words) [1] | Structure (SMILES) |
| --- | --- | --- | --- | --- | --- | --- | --- | --- |
| < 0,1 | < 0,1 | < 0,1 | < 0,1 | – | – | – | – | CC#C[C@]1(O)CC[C@H]2[C@@H]3CCC4=CC(=O)C(C#N)(C#N)CC4=C3[C@@H](c3ccc(N(C)C)cc3)C[C@@]21C [Example 9, 2,2-dicyano-11β-(4-dimethylaminophenyl)-17α-(prop-1-ynyl)-Δ^4,9-estradiene-17β-ol-3-one] |
| – | – | – | – | 41 | 250 | 0 | – | CN(C)c1ccc([C@H]2C[C@@]3(C)[C@@H](CC[C@@]3(O)C#Cc3ccccc3)[C@@H]3CCC4=CC(=O)CCC4=C32)cc1 [Example 29, 11β-[4-(N,N-dimethylamino)-phenyl]-21-phenyl-19-nor-17α-Δ^4,9-pregnadiene-20-yne-17β-ol-3-one] |
| – | – | – | – | 78 | 467 | 0 | very remarkable affinity | CN(C)c1ccc([C@H]2C[C@@]3(C)[C@@H](CC[C@@]3(O)C#CCl)[C@@H]3CCC4=CC(=O)CCC4=C32)cc1 [Example 25, 11β-[4-(N,N-dimethylamino)-phenyl]-21-chloro-19-nor-17α-Δ^4,9-pregnadiene-20-yne-17β-ol-3-one] |
